Measurements published in EP3050567B1, “COMPOUND FOR ACTIVATING AMPK AND USES THEREOF” (Energenesis Biomedical Co., Ltd., priority 2013, dated 2015).

Experiments:
[1] = tested on: AMPK; experiment: AMPK activation assay (phospho-AMPK Thr172 western blot) in C2C12 cells; format: cell-based, Mouse; settings: 30 min
Procedure: (§1) Effects of adenine on AMPK activation were evaluated based on the phosphorylation of AMPK protein upon adenine treatment. Mouse muscle cell C2C12, mouse fibroblast 3T3, human liver carcinoma cell Hep G2, human breast adenocarcinoma cell line MCF7 and human colon adenocarcinoma grade II cell line HT29, human umbilical vein endothelial cell HUVEC, Human acute monocytic leukemiacell THP1, human macrophage cell U937, murine microglia cell BV-2, and mouse neuroblastoma cell Neuro2A and dermal papilla cell were cultured in high-glucose Dulbecco's modified Eagle's medium (DMEM) containing 10% fetal bovine serum (FBS), 4 mM L-glutamine, 2 mM sodium pyruvate and 1% penicillin/streptomycin (Invitrogen GibcoBRL, Carlsbad, Calif., USA) at 37°C, under 5% CO2. Cells were plated at 3 × 10^5 per well in 6-well plates. Twenty-four hours after plating, adenine was added to the culture media as indicated. After 30 min cells were lysed and subject to western blot analysis. Equal amount of protein from each sample was separated by SDS-PAGE and then electroblotted on to PVDF membranes. Membranes were blocked with 3% BSA in PBS for 60 min and incubated with an anti-phospho-AMPK (Thr172) antibody (1:2,000, Cell signaling) or an anti-AMPK antibody (1:2,000, Cell signaling) at 4°C for 16 h followed by the corresponding secondary antibody for 1 h at room temperature (RT). Immunoreactive bands were detected by enhanced chemiluminescence and recorded using Kodak film. The detected signals were scanned and then quantified using TotalLab Quant software (TotalLab).

[2] = tested on: AMPK; experiment: AMPK activation assay (phospho-AMPK Thr172 western blot) in 3T3 cells; format: cell-based, mouse; settings: 30 min
Procedure: as §1

[3] = tested on: AMPK; experiment: AMPK activation assay (phospho-AMPK Thr172 western blot) in Hep G2 cells; format: cell-based, human; settings: 30 min
Procedure: as §1

[4] = tested on: AMPK; experiment: AMPK activation assay (phospho-AMPK Thr172 western blot) in HT29 cells; format: cell-based, human; settings: 30 min
Procedure: as §1

[5] = tested on: AMPK; experiment: AMPK activation assay (phospho-AMPK Thr172 western blot) in HUVEC cells; format: cell-based, human; settings: 30 min
Procedure: as §1

[6] = tested on: AMPK; experiment: AMPK activation assay (phospho-AMPK Thr172 western blot) in THP1 cells; format: cell-based, Human; settings: 30 min
Procedure: as §1

[7] = tested on: TNFα; experiment: LPS-induced inflammatory response in THP1 macrophages, secreted TNFα (ELISA); format: cell-based, human; settings: 50 ng LPS 6 hr
Procedure: (§2) Effects of adenine on inflammatory response were evaluated in human THP1 macrophage by examining protein level of intracellular COX-2 and secreted TNFα, IL-1β and IL-6. Differentiation of THP1 monocytes into macrophages was induced by 50 nM PMA for 24 hr. THP1 macrophages were further stimulated by 50 ng LPS for 6 hr in the presence of 10-600 µM of adenine or vehicle followed by cell lysis and western blot analysis. Equal amounts of protein were separated by SDS-PAGE and then electroblotted on to PVDF membranes. Membranes were blocked with 3% BSA in PBS for 60 min and incubated with an anti-COX-2 antibody (1:1,000, Cell signaling), an anti-actin antibody (1:5,000, Cell signaling) at 4° C for 16 h followed by the corresponding secondary antibody for 1 h at room temperature (RT). Immunoreactive bands were detected by enhanced chemiluminescence and recorded using Kodak film. The detected signals were scanned and then quantified using TotalLab Quant software (TotalLab). The secreted TNFα, IL-1β and IL-6 were analyzed by enzyme-linked immunosorbent assays.

[8] = tested on: IL-1β; experiment: LPS-induced inflammatory response in THP1 macrophages, secreted IL-1β (ELISA); format: cell-based, human; settings: 50 ng LPS 6 hr
Procedure: as §2

[9] = tested on: IL-6; experiment: LPS-induced inflammatory response in THP1 macrophages, secreted IL-6 (ELISA); format: cell-based, human; settings: 50 ng LPS 6 hr
Procedure: as §2

[10] = tested on: TNBS-induced inflammatory bowel disease (IBD) mice model; experiment: TNBS induced inflammation in vivo (relapsing colitis); design: species or system C57BL/6J mice; settings: daily IP adenine 0.01, 0.1, 5 or 30 mg/kg
Procedure: To further evaluate the effects of adenine on inflammatory response, TNBS-induced inflammatory bowel disease (IBD) mice model was used. C57BL/6J mice were maintained at 22° C, under a 12-h light/dark cycle. Relapsing colitis was induced with five escalating doses of TNBS, 0.5 mg, 0.75 mg, 1.0 mg, 1.25 mg, and 1.5 mg, in 50% ethanol were administered respectively for 0.1 mL per mouse weekly. After the third administration of TNBS, daily intraperitoneal injection of adenine (0.01, 0.1, 5 or 30 mg/kg body weight) or saline were given to mice. Two days after the fifth TNBS administration, mice were sacrificed. The inflammatory cytokines including TNF, INFγ and IL-17 from colonic lysates were evaluated by enzyme-linked immunosorbent assays.

[11] = tested on: MCF7; experiment: Cancer cell growth inhibition assay, MCF7; format: cell-based; settings: Homo sapiens; MCF7 cell proliferation, 72 h, cell counting
Procedure: Human liver hepatocellular carcinoma cell line Hep G2, human breast adenocarcinoma cell line MCF7 and human colon adenocarcinoma grade II cell line HT29 were used to evaluate the effects of adenine on cell proliferation. Those cell lines were obtained from ATCC and were cultured in high-glucose Dulbecco's modified Eagle's medium (DMEM) containing 10% fetal bovine serum (FBS), 4 mM L-glutamine, 2 mM sodium pyruvate and 1% penicillin/streptomycin (Invitrogen GibcoBRL, Carlsbad, Calif., USA) at 37°C under 5% CO2. Cells were plated at 1 × 10^5 per well (6-well plate). Twenty-four hours after plating, cells were treated with indicated concentration of adenine for 72 h and then followed by cell counting. Cells were detached using trypsin-EDTA solution and stained with trypan blue. The living cells were counted using hemocytometer.

[12] = colonic lysates, dose-dependent, vs non-adenine treated mice

With Nc1ncnc2nc[nH]c12 [Adenine, adenine] the “AMPK activation (fold to control)” value ([1]; adenine 1 microM) was 1.2 fold to control, the “AMPK activation (fold to control)” value ([1]; adenine 10 microM) was 1.7 fold to control and the “AMPK activation (fold to control)” value ([1]; adenine 100 microM) was 3.2 fold to control. For the same molecule, the “AMPK activation (fold to control)” value ([1]; adenine 200 microM) was 3.9 fold to control, the “AMPK activation (fold to control)” value ([1]; adenine 600 microM) was 4.1 fold to control and the “AMPK activation (fold to control)” value ([2]; adenine 1 microM) was 1.1 fold to control. For the same molecule, the “AMPK activation (fold to control)” value ([2]; adenine 10 microM) was 1.5 fold to control, the “AMPK activation (fold to control)” value ([2]; adenine 100 microM) was 2.9 fold to control and the “AMPK activation (fold to control)” value ([2]; adenine 200 microM) was 4.0 fold to control. For the same molecule, the “AMPK activation (fold to control)” value ([2]; adenine 600 microM) was 4.2 fold to control, the “AMPK activation (fold to control)” value ([3]; adenine 1 microM) was 1.1 fold to control and the “AMPK activation (fold to control)” value ([3]; adenine 10 microM) was 2.1 fold to control. For the same molecule, the “AMPK activation (fold to control)” value ([3]; adenine 100 microM) was 3.3 fold to control, the “AMPK activation (fold to control)” value ([3]; adenine 200 microM) was 3.8 fold to control and the “AMPK activation (fold to control)” value ([3]; adenine 600 microM) was 4.2 fold to control. The “AMPK activation (fold to control)” value ([4]; adenine 1 microM) was 1.1 fold to control, the “AMPK activation (fold to control)” value ([4]; adenine 10 microM) was 1.7 fold to control and the “AMPK activation (fold to control)” value ([4]; adenine 100 microM) was 2.9 fold to control. For the same molecule, the “AMPK activation (fold to control)” value ([4]; adenine 200 microM) was 3.4 fold to control, the “AMPK activation (fold to control)” value ([4]; adenine 600 microM) was 3.8 fold to control and the “AMPK activation (fold to control)” value ([5]; adenine 1 microM) was 1.2 fold to control. For the same molecule, the “AMPK activation (fold to control)” value ([5]; adenine 10 microM) was 1.9 fold to control, the “AMPK activation (fold to control)” value ([5]; adenine 100 microM) was 3.2 fold to control and the “AMPK activation (fold to control)” value ([5]; adenine 200 microM) was 3.9 fold to control. The “AMPK activation (fold to control)” value ([5]; adenine 600 microM) was 4.1 fold to control, the “AMPK activation (fold to control)” value ([6]; adenine 1 microM) was 1.2 fold to control and the “AMPK activation (fold to control)” value ([6]; adenine 10 microM) was 2.2 fold to control. The “AMPK activation (fold to control)” value ([6]; adenine 100 microM) was 3.7 fold to control, the “AMPK activation (fold to control)” value ([6]; adenine 200 microM) was 4.3 fold to control and the “AMPK activation (fold to control)” value ([6]; adenine 600 microM) was 4.2 fold to control. For the same molecule, the “TNFα (% to control)” value ([7]; adenine 10 microM) was 85±9.1 % to control, the “TNFα (% to control)” value ([7]; adenine 100 microM) was 41±2.6 % to control and the “TNFα (% to control)” value ([7]; adenine 600 microM) was 23±1.8 % to control. The “IL-1β □ (%to control)” value ([8]; adenine 10 microM) was 91±8.4 %to control, the “IL-1β □ (%to control)” value ([8]; adenine 100 microM) was 29±5.5 %to control and the “IL-1β □ (%to control)” value ([8]; adenine 600 microM) was 17±3.7 %to control. For the same molecule, the “IL-6 (% to control)” value ([9]; adenine 10 microM) was 88±6.3 % to control, the “IL-6 (% to control)” value ([9]; adenine 100 microM) was 21±7.8 % to control and the “IL-6 (% to control)” value ([9]; adenine 600 microM) was 14±6.2 % to control. For the same molecule, the “body weight loss caused by TNBS” value [10] was “rescued the body weight loss”, the “level of IL-17 in colon” value [10, 12] was “significantly reduced” and the “level of INFγ in colon” value [10, 12] was “significantly reduced”. For the same molecule, the “level of TNF in colon” value [10, 12] was “significantly reduced” and the IC50 [11] was 538 µM.
